Reference: patent US8962596B2 (Array BioPharma Inc., priority 2010, dated 2015)

How the values were obtained:
Format in all cases: biochemical
Human Tyk2 kinase domain = biological target: T1, Human Tyk2 kinase domain (Homo sapiens, UniProt P29597); assay: Tyk2 Inhibition Assay (Omnia kinase fluorescence peptide substrate assay); conditions: averaged IC50 ranges; assay of Example A; 10 μM (Km app) or 1 mM ATP, 2 nM Tyk2
T1 construct: comprising amino acids 886 to 1187 with 10 additional histidine residues; 10xHis (histidine tag) (C, cleaved yes); made in house
T1 sequence (P29597 886-1187): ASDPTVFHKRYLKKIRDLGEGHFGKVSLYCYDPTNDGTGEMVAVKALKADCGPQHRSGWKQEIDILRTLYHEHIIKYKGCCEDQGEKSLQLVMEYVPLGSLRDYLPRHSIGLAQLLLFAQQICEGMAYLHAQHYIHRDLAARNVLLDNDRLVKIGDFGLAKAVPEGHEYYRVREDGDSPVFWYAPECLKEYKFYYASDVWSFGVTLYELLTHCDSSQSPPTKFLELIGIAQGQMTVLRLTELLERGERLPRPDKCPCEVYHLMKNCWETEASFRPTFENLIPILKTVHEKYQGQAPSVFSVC
In short: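 2 nM His-tag-cleaved kinase domain (aa 886–1187) with 8 μM Omnia Y12 peptide, 10 μM (Km app) or 1 mM ATP, pH 7.4 HEPES/10 mM MgCl2, 2% DMSO. Fluorescence (ex 360/em 485 nm) every 50 s for 45 min; IC50 from 4-parameter fit of POC, top dose 10 μM.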

JAK1 = biological target: T2, JAK1 (Homo sapiens, UniProt P23458); assay: JAK1 Inhibition Assay (Omnia kinase fluorescence peptide substrate assay); conditions: averaged IC50 ranges; assay of Example B; 40 μM (Km app) or 1 mM ATP, 15 nM JAK1
T2 construct: purchased Invitrogen Corporation, Carlsbad, Calif; PV4775
T2 sequence (P23458 whole entry): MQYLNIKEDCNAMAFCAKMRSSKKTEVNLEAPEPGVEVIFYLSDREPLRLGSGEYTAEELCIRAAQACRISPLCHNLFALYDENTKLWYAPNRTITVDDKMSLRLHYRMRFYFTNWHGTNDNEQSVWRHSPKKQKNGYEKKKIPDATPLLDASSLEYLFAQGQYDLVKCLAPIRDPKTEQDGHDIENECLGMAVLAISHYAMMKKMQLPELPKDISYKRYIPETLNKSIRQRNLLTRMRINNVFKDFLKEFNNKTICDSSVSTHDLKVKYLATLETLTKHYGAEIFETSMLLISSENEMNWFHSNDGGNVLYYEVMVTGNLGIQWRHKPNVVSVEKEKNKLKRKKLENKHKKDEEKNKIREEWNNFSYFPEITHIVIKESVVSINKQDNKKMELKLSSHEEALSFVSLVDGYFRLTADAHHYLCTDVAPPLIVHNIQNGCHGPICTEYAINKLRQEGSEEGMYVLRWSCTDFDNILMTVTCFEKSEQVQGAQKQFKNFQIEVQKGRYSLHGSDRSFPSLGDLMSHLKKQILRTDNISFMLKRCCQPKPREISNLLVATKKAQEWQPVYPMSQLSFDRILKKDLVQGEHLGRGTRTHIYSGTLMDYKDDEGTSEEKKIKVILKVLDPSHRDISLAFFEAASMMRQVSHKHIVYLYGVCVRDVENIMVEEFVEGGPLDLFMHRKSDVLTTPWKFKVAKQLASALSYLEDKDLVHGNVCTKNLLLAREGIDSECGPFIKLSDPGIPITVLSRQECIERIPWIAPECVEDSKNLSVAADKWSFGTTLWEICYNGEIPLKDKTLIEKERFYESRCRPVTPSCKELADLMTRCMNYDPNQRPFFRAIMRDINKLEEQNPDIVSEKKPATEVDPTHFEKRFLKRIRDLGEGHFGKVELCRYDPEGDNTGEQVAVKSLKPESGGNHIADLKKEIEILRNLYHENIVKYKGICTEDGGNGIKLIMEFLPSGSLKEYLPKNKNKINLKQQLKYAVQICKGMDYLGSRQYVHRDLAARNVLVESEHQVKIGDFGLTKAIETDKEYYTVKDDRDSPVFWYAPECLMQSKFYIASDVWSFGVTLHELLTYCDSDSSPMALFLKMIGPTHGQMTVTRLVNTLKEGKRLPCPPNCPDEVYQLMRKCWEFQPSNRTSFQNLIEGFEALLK

JAK2 = biological target: T3, JAK2 (Homo sapiens, UniProt O60674); assay: JAK2 Inhibition Assay (Omnia kinase fluorescence peptide substrate assay); conditions: averaged IC50 ranges; assay of Example C; 25 μM (Km app) or 1 mM ATP, 5 nM JAK2
T3 construct: purchased Invitrogen Corporation, Carlsbad, Calif; PV4288
T3 sequence (O60674 whole entry): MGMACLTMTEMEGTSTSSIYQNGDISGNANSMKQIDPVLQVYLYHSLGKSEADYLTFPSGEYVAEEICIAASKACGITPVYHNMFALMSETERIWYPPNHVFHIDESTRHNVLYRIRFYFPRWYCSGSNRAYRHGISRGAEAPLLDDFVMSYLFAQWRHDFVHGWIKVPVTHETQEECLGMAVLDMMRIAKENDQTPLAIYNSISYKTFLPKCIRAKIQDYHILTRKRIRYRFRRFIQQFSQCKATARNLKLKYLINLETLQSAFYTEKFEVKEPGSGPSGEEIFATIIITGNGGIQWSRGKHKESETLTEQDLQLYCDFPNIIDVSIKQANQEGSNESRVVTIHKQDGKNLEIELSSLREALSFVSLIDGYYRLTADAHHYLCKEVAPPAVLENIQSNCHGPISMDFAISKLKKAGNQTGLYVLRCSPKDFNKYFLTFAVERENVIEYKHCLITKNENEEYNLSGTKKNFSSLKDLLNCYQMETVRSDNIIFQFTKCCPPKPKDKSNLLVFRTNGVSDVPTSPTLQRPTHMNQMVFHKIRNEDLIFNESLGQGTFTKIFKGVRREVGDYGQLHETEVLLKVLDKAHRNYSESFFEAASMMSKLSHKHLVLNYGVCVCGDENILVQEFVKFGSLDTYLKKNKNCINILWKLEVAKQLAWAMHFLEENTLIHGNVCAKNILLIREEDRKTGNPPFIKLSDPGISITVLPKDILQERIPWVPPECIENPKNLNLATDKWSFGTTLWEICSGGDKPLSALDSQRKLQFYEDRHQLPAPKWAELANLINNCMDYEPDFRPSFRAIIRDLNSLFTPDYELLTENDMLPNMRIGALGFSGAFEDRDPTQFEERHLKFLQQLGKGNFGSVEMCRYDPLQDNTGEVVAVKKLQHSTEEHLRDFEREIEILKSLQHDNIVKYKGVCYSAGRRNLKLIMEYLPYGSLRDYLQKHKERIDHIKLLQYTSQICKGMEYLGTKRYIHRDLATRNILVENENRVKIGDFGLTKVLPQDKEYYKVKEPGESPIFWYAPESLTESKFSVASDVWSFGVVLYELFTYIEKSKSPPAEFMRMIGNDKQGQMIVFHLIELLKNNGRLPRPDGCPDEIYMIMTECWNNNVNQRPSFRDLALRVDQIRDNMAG
In short: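 A 10-point, 3-fold compound series (top 10 μM, 2% DMSO) was tested against 5 nM JAK2 with 10 μM Omnia Y7 substrate and either 1 mM or 25 μM (Km app) ATP. Buffer: pH 7.4 HEPES, MgCl2, Triton X-100, DTT. Sox fluorescence was monitored kinetically for 45 min; IC50 is the concentration giving 50 POC on a 4-parameter fit.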

JAK3 = biological target: T4, JAK3 (Homo sapiens, UniProt P52333); assay: JAK3 Inhibition Assay (Omnia kinase fluorescence peptide substrate assay); conditions: averaged IC50 ranges; assay of Example D; 10 μM (Km app) or 1 mM ATP, 2.5 nM JAK3
T4 construct: purchased Invitrogen Corporation, Carlsbad, Calif; PV4080
T4 sequence (P52333 1-1124): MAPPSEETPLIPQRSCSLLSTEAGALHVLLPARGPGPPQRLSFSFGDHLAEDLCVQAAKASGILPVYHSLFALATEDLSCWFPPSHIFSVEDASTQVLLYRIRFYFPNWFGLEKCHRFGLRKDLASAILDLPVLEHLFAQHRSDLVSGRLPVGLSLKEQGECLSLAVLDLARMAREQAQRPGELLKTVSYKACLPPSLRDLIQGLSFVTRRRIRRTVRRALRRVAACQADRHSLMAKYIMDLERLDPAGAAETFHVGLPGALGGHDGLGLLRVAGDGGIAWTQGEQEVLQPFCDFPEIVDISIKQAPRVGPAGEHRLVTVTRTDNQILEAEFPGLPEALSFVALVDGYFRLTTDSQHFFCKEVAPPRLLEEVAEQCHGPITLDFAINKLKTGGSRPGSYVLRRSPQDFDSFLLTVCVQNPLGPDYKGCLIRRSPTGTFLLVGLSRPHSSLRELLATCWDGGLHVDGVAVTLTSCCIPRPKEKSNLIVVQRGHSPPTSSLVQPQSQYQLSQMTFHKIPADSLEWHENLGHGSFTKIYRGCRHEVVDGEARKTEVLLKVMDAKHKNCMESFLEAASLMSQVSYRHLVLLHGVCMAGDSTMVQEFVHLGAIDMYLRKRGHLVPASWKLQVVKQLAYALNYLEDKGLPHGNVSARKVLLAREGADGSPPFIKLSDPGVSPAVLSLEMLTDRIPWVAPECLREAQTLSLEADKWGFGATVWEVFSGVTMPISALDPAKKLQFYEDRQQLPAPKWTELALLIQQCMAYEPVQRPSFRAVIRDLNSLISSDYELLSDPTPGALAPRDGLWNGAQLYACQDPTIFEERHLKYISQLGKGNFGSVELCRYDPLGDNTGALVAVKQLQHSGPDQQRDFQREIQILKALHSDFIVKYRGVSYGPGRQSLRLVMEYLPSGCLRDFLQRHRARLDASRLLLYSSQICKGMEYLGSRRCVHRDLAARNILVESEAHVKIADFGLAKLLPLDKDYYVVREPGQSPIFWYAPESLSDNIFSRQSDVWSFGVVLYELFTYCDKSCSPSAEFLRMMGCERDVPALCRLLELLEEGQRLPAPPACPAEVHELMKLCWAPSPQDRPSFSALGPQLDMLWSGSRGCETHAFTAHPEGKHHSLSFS
In short: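 Kinase at 2.5 nM with 10 µM Omnia Y7 peptide and 10 µM (Km app) or 1 mM ATP in 25 mM HEPES pH 7.4, 10 mM MgCl2, 1 mM DTT, 0.01% Triton X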

Row | Compound | IC50 (Human Tyk2 kinase domain) [µM] | IC50 (JAK1) [µM] | IC50 (JAK2) [µM] | IC50 (JAK3) [µM]
1 | Cn1cc(-c2cc3nccn3c(-c3cnn(C4(CC#N)CN(C(=O)C5(C(F)(F)F)CC5)C4)c3)n2)cn1 [Example 65, 2-(3-(4-(7-(1-Methyl-1H-pyrazol-4-yl)imidazo[1,2-c]pyrimidin-5-yl)-1H-pyrazol-1-yl)-1-(1-(trifluoromethyl)cyclopropanecarbonyl)azetidin-3-yl)acetonitrile] | 0.01 to 0.1 | 0.01 to 0.1 | 0.01 to 0.1 | 0.1 to 1
2 | Cn1cc(-c2cc3nccn3c(-c3cnn(C4(CC#N)CCCC4)c3)n2)cn1 [Example 23, 2-(1-(4-(7-(1-methyl-1H-pyrazol-4-yl)imidazo[1,2-c]pyrimidin-5-yl)-1H-pyrazol-1-yl)cyclopentyl)acetonitrile] | 0.01 to 0.1 | 0.1 to 1 | 0.1 to 1 | > 1
3 | Cc1nn(C2(CC#N)CN(CC(F)(F)F)C2)cc1-c1nc(-c2cnn(C)c2)cc2nccn12 [Example 108, 2-(3-(3-methyl-4-(7-(1-methyl-1H-pyrazol-4-yl)imidazo[1,2-c]pyrimidin-5-yl)-1H-pyrazol-1-yl)-1-(2,2,2-trifluoroethyl)azetidin-3-yl)acetonitrile] | 0.01 to 0.1 | > 1 | 0.1 to 1 | > 1
4 | Cn1cc(-c2cc3nccn3c(-c3cnn(C(C)(CC#N)c4ccccc4)c3)n2)cn1 (stereo not shown) [Example 16, 3-(4-(7-(1-methyl-1H-pyrazol-4-yl)imidazo[1,2-c]pyrimidin-5-yl)-1H-pyrazol-1-yl)-3-phenylbutanenitrile] | 0.1 to 1 | > 1 | 0.1 to 1 | > 1
5 | Cc1ncc(-c2cc3nccn3c(-c3cnn(C(CC#N)C4CC4)c3)n2)s1 (stereo not shown) [Example 48] | 0.01 to 0.1 | 0.1 to 1 | 0.01 to 0.1 | 0.1 to 1
6 | Cc1cn(-c2cc3nccn3c(-c3cnn(C(CC#N)C4CC4)c3)n2)cn1 (stereo not shown) [Example 46, 3-Cyclopropyl-3-(4-(7-(4-methyl-1H-imidazol-1-yl)imidazo[1,2-c]pyrimidin-5-yl)-1H-pyrazol-1-yl)propanenitrile] | 0.01 to 0.1 | > 1 | 0.1 to 1 | > 1

Now from value to compound:

Row | IC50 (Human Tyk2 kinase domain) [µM] | IC50 (JAK1) [µM] | IC50 (JAK2) [µM] | IC50 (JAK3) [µM] | Compound
7 | 0.01 to 0.1 | 0.01 to 0.1 | 0.01 to 0.1 | 0.1 to 1 | N#CCC(C1CC1)n1cc(-c2nc(-c3ccc4c(c3)CCNC4)cc3nccn23)cn1 (stereo not shown) [Example 52, 3-Cyclopropyl-3-(4-(7-(1,2,3,4-tetrahydroisoquinolin-6-yl)imidazo[1,2-c]pyrimidin-5-yl)-1H-pyrazol-1-yl)propanenitrile]
8 | < 0.01 | < 0.01 | 0.01 to 0.1 | 0.1 to 1 | COc1ccc(-c2cc3nccn3c(-c3cnn(C4(CC#N)CN(S(=O)(=O)C(F)(F)F)C4)c3)n2)cc1 [Example 158, 2-(3-(4-(7-(4-methoxyphenyl)imidazo[1,2-c]pyrimidin-5-yl)-1H-pyrazol-1-yl)-1-(trifluoromethylsulfonyl)azetidin-3-yl)acetonitrile]
9 | < 0.01 | 0.01 to 0.1 | 0.01 to 0.1 | 0.1 to 1 | N#CCC(C1CC1)n1cc(-c2nc(-c3ccc(N4CCOCC4)cc3)cc3nccn23)cn1 (stereo not shown) [Example 117, 3-cyclopropyl-3-(4-(7-(4-morpholinophenyl)imidazo[1,2-c]pyrimidin-5-yl)-1H-pyrazol-1-yl)propanenitrile]
10 | 0.1 to 1 | > 1 | > 1 | > 1 | CC(C)(C)NC(=O)c1cc2nccn2c(-c2cnn(C(CC#N)C3CC3)c2)n1 (stereo not shown) [Example 122, N-tert-butyl-5-(1-(2-cyano-1-cyclopropylethyl)-1H-pyrazol-4-yl)imidazo[1,2-c]pyrimidine-7-carboxamide]
11 | 0.01 to 0.1 | > 1 | 0.1 to 1 | > 1 | CCN1CC(CC#N)(n2cc(-c3nc(-c4cnn(C)c4)cc4nccn34)cn2)C1 [Example 72, 2-(1-ethyl-3-(4-(7-(1-methyl-1H-pyrazol-4-yl)imidazo[1,2-c]pyrimidin-5-yl)-1H-pyrazol-1-yl)azetidin-3-yl)acetonitrile]
12 | < 0.01 | 0.1 to 1 | 0.01 to 0.1 | > 1 | N#CCC1(n2cc(-c3nc(-c4cnn(C5COC5)c4)cc4nccn34)cn2)CN(CC(F)F)C1 [Example 156, 2-(1-(2,2-difluoroethyl)-3-(4-(7-(1-(oxetan-3-yl)-1H-pyrazol-4-yl)imidazo[1,2-c]pyrimidin-5-yl)-1H-pyrazol-1-yl)azetidin-3-yl)acetonitrile]
13 | 0.1 to 1 | 0.1 to 1 | 0.1 to 1 | > 1 | CC(=O)N1CCC(C(CC#N)n2cc(-c3nc(-c4cnn(C)c4)cc4nccn34)cn2)CC1 (stereo not shown) [Example 27, 3-(1-acetylpiperidin-4-yl)-3-(4-(7-(1-methyl-1H-pyrazol-4-yl)imidazo[1,2-c]pyrimidin-5-yl)-1H-pyrazol-1-yl)propanenitrile]
